[APT] = modified deoxyadenosine dA^PT as named in the publication

One data set has as its system HBV. The note with it: cited from earlier work.
In another data set the test system is HIV. The settings on record: cited from earlier work.
The subject of a further data set is human platelet. The settings on record: cited from earlier work.
The subject of a further data set is mouse leukemia cells. The note with it: cited from earlier work.
In data set [1] the test system is oligonucleotide of SEQ ID NO: 4 (X=T). The experiment in a line: CD spectra of DNA duplexes. Format: physicochemical. The settings on record: 4 μM each strand, 10 mM sodium phosphate pH 7, 150 mM NaCl, 1 mM EDTA, 10° C., 220-300 nm; compared with unmodified duplex 4+5. From the text:
CD spectra of the DNA duplexes obtained from the hybridization of the oligonucleotides of SEQ ID NOs: 4+1 and 4+2, containing one or two dA^PT, respectively, were compared to that of the parent unmodified duplex obtained by hybridization of the oligonucleotides of SEQ ID NOs: 4+5.

The test system of data set [2] is 24-mer single-stranded target DNA sequence of SEQ ID NO: 4 (X=T). Briefly: thermal denaturation (melting) studies of DNA duplexes followed by absorption spectroscopy. The data set is classed as binding. The settings on record: duplex with SEQ ID NO: 4 (X=T); 1 μM each strand, 10 mM sodium phosphate pH 7, 150 mM NaCl, 1 mM EDTA; 260 nm. The protocol: Oligonucleotide concentrations were 1 μM (each strand) in a 10 mM sodium phosphate, pH 7, buffer containing 150 mM NaCl and 1 mM EDTA. Temperature was increased from 10° C. to 80° C. over 140 min. Melting curves were recorded at X, =260 nm.
The influence of dA replacement (one or two) by the pyrazolo[1,5-a]-1,3,5-triazine derivative (dA^PT) on duplex stability was investigated by thermal denaturation studies, followed by absorption spectroscopy, using DNA duplexes obtained by mixing the modified oligonucleotides of SEQ ID NOs. 1 and 2 with the 24-mer single-stranded target DNA sequence of SEQ ID NO: 4 (X=T). The natural deoxyadenosine was also incorporated in the same positions (SEQ ID NO: 5) for comparison (duplex obtained by hybridization of the oligonucleotides of SEQ ID NOs: 4+5).

Data set [3] can be described thus: acidic hydrolysis (stability of the glycosidic bond). The data set is classed as physicochemical. The settings on record: 80% acetic acid at 65° C. for 45 hr followed by concentrated ammonium hydroxide. From the text:
In order to study the stability of the glycosidic bond of the dA^PT described above in acidic conditions, compared with that of dA, two oligonucleotides containing a single incorporation of either dA^PT (SEQ ID NO: 3) or the natural dA (SEQ ID NO: 6) were synthesized.

Turning to `Nc1ncnc2c([C@H]3O[C@@H](CO)[C@H](O)[C@@H]3O)cnn12` [4-amino-8-(β-L-ribofuranosyl)pyrazolo[1,5-a]-1,3,5-triazine], in the data set on HBV, the anti-HBV activity entry was “no significant”. Moreover, the anti-HIV activity entry with HIV is recorded as “no significant”.

As for `CNc1nc(C)nc2c([C@H]3C[C@H](OP(=O)(O)O)[C@@H](COP(=O)(O)O)O3)cnn12` [compound 2, 8-(2′-deoxy-β-D-ribofuranosyl)-2-methyl-4-(N-methylamino)pyrazolo[1,5-a]-1,3,5-triazine-3′,5′-bisphosphate], in the data set with human platelet, the “inhibition of ADP-induced human platelet aggregation” value is “strongly inhibits” and the “inhibition of ADP-induced human platelet shape change” value is listed as “strongly inhibits”.

For `Nc1ncnc2c([C@@H]3O[C@H](CO)[C@@H](O)[C@H]3O)cnn12` [compound 10, 4-amino-8-(β-D-ribofuranosyl)pyrazolo[1,5-a]-1,3,5-triazine], in the data set with mouse leukemia cells (all systems tested), the “activity compared with formycin” value is recorded as “more active than formycin”. For the same compound, in the data set with mouse leukemia cells, the “inhibitory activity against various mouse leukemia cells” value was “moderate inhibitory activity”.

As to “SEQ ID NO: 1: 18-mer 5′d-(TAC CGC GTG CAA^PT CCC TCT)3′ with one dA^PT incorporation (DNA TACCGCGTGCATCCCTCT; DNA, [APT] at 12, backbone not given here)”, the “duplex form from CD spectra” value in data set [1] is “still forms a B-form duplex”. Moreover, the “melting temperature [Tm]” value in data set [2] is 69.6 °C.

“SEQ ID NO: 2: 18-mer 5′d-(TA^PTC CGC GTG CAA^PT CCC TCT)3′ with two dA^PT incorporations (DNA TNCCGCGTGCANCCCTCT; listed as DNA, chemistry not fully specified)”: in data set [1], the “duplex form from CD spectra” value is on record as “still forms a B-form duplex”. Moreover, in data set [2], the “melting temperature [Tm]” value came to 69.3 °C.

For the compound “SEQ ID NO: 3: 5′d-(TTC CTC TTT CTA^PT CCC TCT)3′, a sole dA^PT and no other purine (DNA TTCCTCTTTCTNCCCTCT; listed as DNA, chemistry not fully specified)”, the “stability in acidic conditions (degradation)” value in data set [3] was “not degraded”.

For the compound “SEQ ID NO: 5: unmodified 5′d-(TAC CGC GTG CAA CCC TCT)3′ with natural deoxyadenosine (DNA TACCGCGTGCAACCCTCT; DNA, backbone not given here)”, in data set [2], the “melting temperature [Tm]” value is 69 °C.

For the compound “SEQ ID NO: 6: unmodified 5′d-(TTC CTC TTT CTA CCC TCT)3′ with natural dA (DNA TTCCTCTTTCTACCCTCT; DNA, backbone not given here)”, the “stability in acidic conditions (degradation)” value in data set [3] was “fully fragmented”.

Source of the values: US9994604B2, “Pyrazolotriazolyl nucleoside analogues and oligonucleotides comprising them” (Bio-Lab Ltd., priority 2012, dated 2018).
